Data reported in patent publication US20040127492A1 (Pharmacia Corporation, priority 2002, published 2004).
Where two headings read alike, the source gives them in different places.

Experiments:
MK-3 = MK-3 (Homo sapiens, UniProt Q16644); experiment: MK-3 inhibition IC50 (similar method to MK-2, with appropriate modifications); type: biochemical; settings: read-out: MK-3 Avg. IC50
Experimental: In practice, the selectivity of a cyclic pyrazole MK-2 inhibitor varies depending upon the condition under which the test is performed and on the inhibitors being tested. However, for the purposes of this specification, the selectivity of a cyclic pyrazole MK-2 inhibitor inhibitor can be measured as a ratio of the in vitro or in vivo IC50 value for inhibition of MK-3, divided by the IC50 value for inhibition of MK-2 (IC50 MK-3/IC50 MK-2). […] The MK-2 or MK-3 inhibiting activity of any of the compounds described herein can be determined by any one of several methods that are well known to those having skill in the art of enzyme activity testing. […] A similar method, with appropriate modifications, Can be used to measure MK-3 inhibitory activity. In addition, the efficacy of one of the present MK-2 inhibiting compounds in therapeutic applications can be determined by testing for inhibition of TNFα production in cell culture and in animal model assays.

MAPKAPK2 (MK-2) = MAPKAPK2 (MK-2) (Homo sapiens, UniProt P49137); experiment: Determination of MK-2 IC50 (HSP-peptide phosphorylation, anion exchange resin capture assay); type: biochemical
How it was run: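 MAPKAPK2, preactivated by p38α with 0.25 mM ATP for 1 h at 30° C, used at 15 nM to phosphorylate HSP-peptide with 0.03 mM ATP plus [γ33P]ATP, pH 7.5, 2% DMSO, 30 min at 30° C. Labelled peptide counted after anion-exchange resin capture; IC50 from six ten-fold dilutions, triplicate.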

[1] = Table 1, phenoxypyrazole MK-2 inhibitors
[2] = Table 1, phenoxypyrazole MK-2 inhibitors, read-out: MK-2 Avg, IC50
[3] = Table 2, pyrazolylpyrazole MK-2 inhibitors
[4] = Table 2, pyrazolylpyrazole MK-2 inhibitors, read-out: MK-2 Avg. IC50
[5] = Table 5, other cyclic pyrazole MK-2 inhibiting compounds
[6] = Table 5, other cyclic pyrazole MK-2 inhibiting compounds, read-out: MK-2 Avg. IC50

MK-3, sequence (Q16644 whole entry, species assumed): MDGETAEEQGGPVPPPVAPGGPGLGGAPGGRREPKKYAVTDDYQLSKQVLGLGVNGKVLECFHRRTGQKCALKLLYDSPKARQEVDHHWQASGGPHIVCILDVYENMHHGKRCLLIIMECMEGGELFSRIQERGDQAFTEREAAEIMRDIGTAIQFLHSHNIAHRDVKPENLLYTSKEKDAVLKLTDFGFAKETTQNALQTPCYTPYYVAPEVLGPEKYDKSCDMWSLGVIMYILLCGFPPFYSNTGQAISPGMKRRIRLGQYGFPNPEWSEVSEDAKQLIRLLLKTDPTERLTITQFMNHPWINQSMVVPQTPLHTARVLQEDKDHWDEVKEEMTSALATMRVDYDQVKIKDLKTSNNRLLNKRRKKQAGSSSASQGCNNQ
MAPKAPK2 (MK-2), sequence (P49137 whole entry, species assumed): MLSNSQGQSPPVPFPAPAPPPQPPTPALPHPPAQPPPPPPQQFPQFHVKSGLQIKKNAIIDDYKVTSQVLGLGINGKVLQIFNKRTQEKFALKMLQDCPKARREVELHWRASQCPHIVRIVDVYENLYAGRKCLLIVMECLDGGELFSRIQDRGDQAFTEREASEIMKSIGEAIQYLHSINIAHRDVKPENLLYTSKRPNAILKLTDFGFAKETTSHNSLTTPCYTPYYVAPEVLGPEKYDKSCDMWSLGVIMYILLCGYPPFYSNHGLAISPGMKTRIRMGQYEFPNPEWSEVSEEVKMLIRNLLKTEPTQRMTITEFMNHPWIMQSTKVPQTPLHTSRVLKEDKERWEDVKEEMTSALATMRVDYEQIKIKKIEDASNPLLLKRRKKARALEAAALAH

| Compound | IC50 (MK-3) [µM] | IC50 (MAPKAPK2 (MK-2); read-out: MK-2 Avg. IC50) [µM] | IC50 (MK-3; [1]) [µM] | IC50 (MAPKAPK2 (MK-2); [2]) [µM] | further results |
| --- | --- | --- | --- | --- | --- |
| COc1ccc(-c2cc3c(cn2)CCc2c-3nn(CCCN)c2C(=O)O)cc1 [Example 10] | 0.995 | 0.0371 |  |  |  |
| CC(C)c1cccc(-c2ccc(CCNCCCn3nc4c(c3C(=O)O)CCc3cnccc3-4)cc2)c1 [Example 40] | 16.1 | 0.245 |  |  |  |
| O=C(O)c1c2c(nn1CCCNCCc1ccc(-c3ccccc3C(F)(F)F)cc1)-c1ccncc1CC2 [Example 70] | 44.8 | 0.801 |  |  |  |
| COc1cc2c(cc1-c1cccc([N+](=O)[O-])c1)-c1nn(CCNC(=O)OC(C)(C)C)c(C(=O)O)c1CC2 [Example 44] |  |  | > 200 | 82.2 |  |
| CSc1n[nH]c2c1-c1nn3c(c1CC2)C(=O)NCCC3 [Example 11] |  |  |  |  | IC50 (MK-3; [3]): ≥ 200 µM; IC50 (MAPKAPK2 (MK-2); [4]): 10.5 µM |
| N#CCCn1nc(C(N)=O)c2c1-c1cn[nH]c1CC2 [Example 67] |  |  |  |  | IC50 (MK-3; [3]): ≥ 200 µM; IC50 (MAPKAPK2 (MK-2); [4]): ≥ 200 µM |
| CCOc1ccc(CCNCCCn2nc3c(c2C(=O)O)CCc2cnccc2-3)cc1 [Example 74] | 34.8 | 0.931 |  |  |  |
| O=C(O)c1n[nH]c2c1CC(c1ccccc1)c1cc(O)ccc1-2 (stereo not drawn) [Example 113] |  |  | > 200 | > 200 |  |
| COc1cc2c(cc1OC)-c1n[nH]c(C(=O)NN)c1CC2 [Example 170] |  |  | > 200 | > 200 |  |
| NCCCn1nc2c(c1C(=O)O)CCc1cc(O)c(-c3cccc(N)c3)cc1-2 [Example 19] |  |  | 166 | 17.2 |  |
| CS(=O)(=O)c1ccc(CCCNCCCn2nc3c(c2C(=O)O)CCc2cnccc2-3)cc1 [Example 65] | 26.1 | 0.622 |  |  |  |
| C=CCn1nc2c(c1C(N)=O)CCc1[nH]ncc1-2 [Example 43] |  |  |  |  | IC50 (MK-3; [3]): ≥ 200 µM; IC50 (MAPKAPK2 (MK-2); [4]): 181 µM |
| COc1cc2c(cc1-c1ccc(Cl)cc1)-c1nn(CCCNC(=O)OC(C)(C)C)c(C(=O)O)c1CC2 [Example 49] |  |  | 161 | 98.1 |  |
| CC1Cc2c(nn(CCCN)c2C(=O)O)-c2ccc(O)cc21 (stereo not drawn) [Example 14] |  |  | > 200 | 10.7 |  |
| O=C1NCCn2nc3c(c21)CCc1cnc(-c2cccc4cccnc24)cc1-3 [Example 171] | 74.8 | 14 |  |  |  |
| CCOC(=O)c1[nH]nc2c1CCc1cc(O)ccc1-2 [Example 70] |  |  | > 200 | 176 |  |
| O=C(O)CCn1nc(C(=O)O)c2c1-c1cn[nH]c1CC2 [Example 100] |  |  |  |  | IC50 (MK-3; [3]): ≥ 200 µM; IC50 (MAPKAPK2 (MK-2); [4]): ≥ 200 µM |
| NCCn1nc2c(c1C(=O)O)CCc1cnccc1-2 [Example 68] | 43.1 | 0.706 |  |  |  |
| NCCCn1nc2c(c1C(=O)O)CCc1cc(O)c(-c3ccc(Cl)cc3)cc1-2 [Example 15] |  |  | 109 | 11 |  |
| NCCCn1nc2c(c1C(=O)O)CCc1cnc(-c3cnc4ccccc4c3)cc1-2 [Example 1] | 0.0354 | 0.00946 |  |  |  |
| CCOC(=O)c1nn(-c2ccccc2)c2c1CCc1[nH]ncc1-2 [Example 54] |  |  |  |  | IC50 (MK-3; [3]): ≥ 200 µM; IC50 (MAPKAPK2 (MK-2); MK-2 Avg. IC50 (uM), Table 2, pyrazolylpyrazole MK-2 inhibitors): ≥ 200 µM |
| CCOC(=O)c1nn(-c2ccccc2)c2c1CCc1cc(OC)c(OC)cc1-2 [Example 168] |  |  | > 200 | > 200 |  |
| NCC1Cn2nc3c(c2C(=O)N1)CCc1cnccc1-3 (stereo not drawn) [Example 49] | 45.8 | 0.427 |  |  |  |
| NCc1cccc(-c2ccc(CCNCCCn3nc4c(c3C(=O)O)CCc3cnccc3-4)cc2)c1 [Example 67] | 10 | 0.663 |  |  |  |
| CNC(=O)c1nn(-c2ccc(S(N)(=O)=O)cc2)c2c1CCc1[nH]ncc1-2 [Example 52] |  |  |  |  | IC50 (MK-3; [3]): ≥ 200 µM; IC50 (MAPKAPK2 (MK-2); [4]): ≥ 200 µM |
| O=C1NCCn2nc3c(c21)CCc1cc(O)c(-c2cccc([N+](=O)[O-])c2)cc1-3 [Example 7] |  |  | > 200 | 3 |  |
| COC(=O)c1[nH]nc2c1CCc1cc(O)c(O)cc1-2 [Example 64] |  |  | > 200 | 154 |  |

| Compound | IC50 (MK-3) [µM] | IC50 (MAPKAPK2 (MK-2); read-out: MK-2 Avg. IC50) [µM] | IC50 (MK-3; [1]) [µM] | IC50 (MAPKAPK2 (MK-2); [2]) [µM] | further results |
| --- | --- | --- | --- | --- | --- |
| O=C(NCCO)c1[nH]nc2c1CCc1cc(O)ccc1-2 [Example 73] |  |  | > 200 | 184 |  |
| COc1cc2c(cc1-c1cccc(C(F)(F)F)c1)-c1nn(CCCNC(=O)OC(C)(C)C)c(C(=O)O)c1CC2 [Example 41] |  |  | > 200 | 63.8 |  |
| O=C(O)c1c2c(nn1CCCNCCc1ccc(/C=C/c3ccccc3)cc1)-c1cc(/C=C/c3ccccc3)ncc1CC2 [Example 35] |  |  |  |  | IC50 (MK-3; [5]): > 20 µM; IC50 (MAPKAPK2 (MK-2); [6]): 0.528 µM |
| NC(=O)c1[nH]nc2c1CCc1c-2cnn1CCO [Example 70] |  |  |  |  | IC50 (MK-3; [3]): ≥ 200 µM; IC50 (MAPKAPK2 (MK-2); [4]): ≥ 200 µM |
| O=C1NC(CO)Cn2nc3c(c21)CCc1cnccc1-3 (stereo not drawn) [Example 71] | 35 | 0.825 |  |  |  |
| Cn1nc2c(c1C(N)=O)CCc1cc(O)ccc1-2 [Example 71] |  |  | > 200 | 179 |  |
| COC(=O)c1nn(-c2ccc(OC)cc2)c2c1CCc1cc(OC)ccc1-2 [Example 163] |  |  | > 200 | > 200 |  |
| CNC(=O)c1[nH]nc2c1CCc1cc(O)ccc1-2 [Example 69] |  |  | > 200 | 176 |  |
| COc1ccc2c(c1)CCc1c(C(=O)O)nn(-c3ccc(Cl)cc3)c1-2 [Example 160] |  |  | > 200 | > 200 |  |
| O=C1NC(CNCCc2cccs2)Cn2nc3c(c21)CCc1cnccc1-3 (stereo not drawn) [Example 73] | 27.8 | 0.924 |  |  |  |
| NCCCn1nc2c(c1C(=O)NO)CCc1cnc(-c3cnc4ccccc4c3)cc1-2 [Example 28] | 4.67 | 0.162 |  |  |  |
| NCCCn1nc2c(c1C(=O)O)CCc1cnc(/C=C/c3ccccc3)cc1-2 [Example 33] |  |  |  |  | IC50 (MK-3; [5]): 0.528 µM; IC50 (MAPKAPK2 (MK-2); [6]): 0.0329 µM |
| O=C(O)c1c2c(nn1CCCNCCCc1cccc(Cl)c1)-c1ccncc1CC2 [Example 35] | 8.57 | 0.207 |  |  |  |
| O=C1NCCn2nc3c(c21)CCc1cnc(N2Cc4ccccc4C2)cc1-3 [Example 157] | 45.4 | 9.58 |  |  |  |
| NC(=O)c1nn(-c2ccccc2)c2c1CCc1c-2cnn1Cc1ccccc1 [Example 53] |  |  |  |  | IC50 (MK-3; [3]): ≥ 200 µM; IC50 (MAPKAPK2 (MK-2); [4]): ≥ 200 µM |
| COCCOCOc1ccc2c(c1)CCc1c-2n[nH]c1C(=O)O [Example 61] |  |  | > 200 | 150 |  |
| C=CCn1nc2c(c1C(=O)O)CCc1[nH]ncc1-2 [Example 15] |  |  |  |  | IC50 (MK-3; [3]): 134 µM; IC50 (MAPKAPK2 (MK-2); [4]): 22.7 µM |
| O=C(O)c1c2c(nn1CCCNCCc1ccc(-c3ccoc3)cc1)-c1ccncc1CC2 [Example 23] | 2.62 | 0.126 |  |  |  |
| CCOC(=O)c1[nH]nc2c1CCc1c-2cnn1CCO [Example 69] |  |  |  |  | IC50 (MK-3; [3]): ≥ 200 µM; IC50 (MAPKAPK2 (MK-2); [4]): ≥ 200 µM |
| COC(=O)c1[nH]nc2c1CCc1cc(OC)ccc1-2 [Example 182] |  |  | > 200 | > 200 |  |
| COc1cc2c(cc1-c1cccc([N+](=O)[O-])c1)-c1nn(CCCNC(=O)OC(C)(C)C)c(C(=O)O)c1CC2 [Example 37] |  |  | > 200 | 53.7 |  |
| O=C(O)c1c2c(nn1CCCNCCc1ccc(Cl)cc1)-c1ccncc1CC2 [Example 56] | 7.86 | 0.551 |  |  |  |
| O=C(O)c1c2c(nn1CCCNCCc1ccc(-c3cccc(Cl)c3)cc1)-c1ccncc1CC2 [Example 24] | 5.85 | 0.13 |  |  |  |
| O=C(O)c1c2c(nn1CCCNCCCc1ccc(Cl)cc1)-c1ccncc1CC2 [Example 52] | 34.3 | 0.479 |  |  |  |
| COc1ccc2c(c1)CCc1c-2n[nH]c1C(=O)NN [Example 180] |  |  | > 200 | > 200 |  |
| NCCCn1nc2c(c1C(=O)O)CCc1cnc(-c3ccc4c(c3)OCO4)cc1-2 [Example 7] | 0.269 | 0.0296 |  |  |  |
| NCCCCn1nc2c(c1C(=O)O)CCc1cnccc1-2 [Example 113] | 174 | 3.01 |  |  |  |
